From patent US7777041B2, “2-acylamino-4-phenylthiazole derivatives, preparation thereof and therapeutic application thereof” (sanofi-aventis, priority 2003, dated 2010)
Read-outs that look alike come from different tables or passages of the source.

Tests used:
human CCR2b receptor = biological target: T1, human CCR2b receptor (Homo sapiens, UniProt P41597); assay: Inhibitory activity on cells expressing the human CCR2b receptor; assay type: cell-based
T1 sequence (P41597 1-360 isoform P41597-2): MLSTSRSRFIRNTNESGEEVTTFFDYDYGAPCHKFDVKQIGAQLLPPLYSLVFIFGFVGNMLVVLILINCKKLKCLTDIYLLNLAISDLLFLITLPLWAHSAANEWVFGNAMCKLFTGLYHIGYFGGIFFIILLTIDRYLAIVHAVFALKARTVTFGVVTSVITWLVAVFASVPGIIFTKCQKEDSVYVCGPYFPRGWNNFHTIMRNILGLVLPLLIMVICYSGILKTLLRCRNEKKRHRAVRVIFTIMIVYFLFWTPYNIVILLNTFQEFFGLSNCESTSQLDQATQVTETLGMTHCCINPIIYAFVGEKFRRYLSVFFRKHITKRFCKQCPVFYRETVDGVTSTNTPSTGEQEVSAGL
Procedure: The inhibitory activity of the compounds according to the invention on cells expressing the human CCR2b receptor was measured.

human THP-1 monocytes = assay: Inhibition of chemotaxis on human THP-1 monocytes (adapted from Albini et al.); assay type: cell-based; conditions: hMCP-1
Procedure: The inhibition of chemotaxis was also measured on human THP-1 monocytes (sold by DSMZ-Germany) using a technique adapted from that described by A. Albini et al., Cancer Res., 1987, 47, 3239-3245. Under these conditions, hMCP-1 has an IC50 value of 6 nM.
The inhibition of chemotaxis by the compounds according to the invention is a sign of their antagonist activity on the chemokine receptors and in particular CCR2b.

HIV-1 Bal virus = assay: Inhibitory activity on PBMCs infected with HIV-1 Bal virus (reverse transcriptase content in supernatant); assay type: cell-based; conditions: 5 days exposure, read-out: IC50 of inhibition of HIV-1 Bal replication in PBMCs
Procedure: The inhibitory activity of the compounds according to the invention on PBMCs (peripheral blood mononuclear cells) infected with the HIV-1 Bal virus was also measured, according to a technique adapted from that described by V. Dolle et al., J. Med. Chem., 2000, 43, 3949, 3962. According to this technique, the PMBCs are infected with HIV-1 Bal and the test compounds are then added to the culture medium for 5 days. At the end of this exposure, the content of reverse transcriptase, which is correlated with the level of viral replication in the cells, is measured in the supernatant.
Under these conditions, AZT, a reference molecule which inhibits viral replication, has an IC50 value of less than 0.1 μM.

[1] = read-out: IC50 of inhibitory activity on cells expressing the human CCR2b receptor

Compound	melting point [°C]	IC50 (human CCR2b receptor; [1]) [nM]	further results
hMCP-1: "hMCP-1 (human monocyte chemotactic protein), which belongs to the group of CC chemokines and whose actions are mediated by the CCR2b receptor"			IC50 (human CCR2b receptor; natural agonist, read-out: concentration of natural agonist hMCP-1 that inhibits 50% (IC50) of the activity of the CCR2b receptor): 0.57 nM; IC50 (human THP-1 monocytes): 6 nM
CCCCc1ccc(OC)c(-c2csc(NC(=O)c3ccc(C(=O)N4CCC(NC5CCOCC5)CC4)cc3)n2)c1.Cl.Cl [68]	181 to 189		
CCOc1ccc(OCC)c(-c2csc(NC(=O)c3ccc(OCCN(CC)CC)cc3)n2)c1 [compound 12]		81	
CCCc1ccc(OC)c(-c2csc(NC(=O)c3ccc(C(=O)N4CCC(N5CC[C@@H](N(C)C)C5)CC4)cc3)n2)c1 [compound 203]		93	
CCOc1ccc(C2CCCCC2)cc1-c1csc(NC(=O)c2ccc(C(=O)N3CCC(=O)CC3)cc2)n1 [compound 244]	236	88	
Cc1cn([C@H]2C[C@H](N=[N+]=[N-])[C@@H](CO)O2)c(=O)[nH]c1=O [AZT]			IC50 (HIV-1 Bal virus): < 100 nM
CCCCc1ccc(OC)c(-c2csc(NC(=O)c3ccc(CCCNC4CCOCC4)cc3)n2)c1 [compound 182, N-[4-(5-Butyl-2-methoxyphenyl)-1,3-thiazol-2-yl]-4-[3-(tetrahydro-2H-pyran-4-ylamino)propyl]benzamide]	150		
